Reference: ChEMBL document CHEMBL3407440, “Monocarbonyl analogs of curcumin inhibit growth of antibiotic sensitive and resistant strains of Mycobacterium tuberculosis” (Eur J Med Chem, 2015)

Tested on: Mycobacterium tuberculosis
Assay: Antituberculosis activity against rifampicin-resistant Mycobacterium tuberculosis H37Rv assessed as growth inhibition after 72 hrs by liquid culture assay
Assay type: functional, organism-based

Compound: O=C1/C(=C/c2ccccc2F)CNC/C1=C\c1ccccc1F
- IC50: 20 µM

Compound: CN1C/C(=C\c2ccccn2)C(=O)/C(=C/c2ccccn2)C1
- IC50: 7 µM
